“And” between values parts separate entries of the source, which are not always exact repeats. Equal entries are not always repeated. Toxic doses and inconclusive results are not listed. Rule for the calls: active = survival T/C of 150% or more; inactive = T/C below 125% in these data.
Tested on: CD2F1 mice, L1210 leukemia ip, survival T/C
Assay: NCI In Vivo Anticancer Drug Screen. Data for tumor model L1210 Leukemia (intraperitoneal) in CD2F1 (CDF1) mice
Settings: higher = longer survival
Method in brief: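 Transplantable tumor in mice; compound-treated vs vehicle-treated groups. Read-out = treated/control ratio of the measured endpoint.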

[1] = endpoint: mean survival time, dose: 25.0 mg/kg/injection, schedule: Q01DX009 (ip), vehicle: saline with Tween-80
[2] = endpoint: mean survival time, dose: 50.0 mg/kg/injection, schedule: Q01DX009 (ip), vehicle: saline with Tween-80
[3] = endpoint: mean survival time, dose: 100.0 mg/kg/injection, schedule: Q01DX009 (ip), vehicle: saline with Tween-80
[4] = endpoint: mean survival time, dose: 100.0 mg/kg/injection, schedule: Q04DX003 (ip), vehicle: saline with Tween-80
[5] = endpoint: mean survival time, dose: 200.0 mg/kg/injection, schedule: Q01DX009 (ip), vehicle: saline with Tween-80
[6] = endpoint: mean survival time, dose: 400.0 mg/kg/injection, schedule: Q01DX009 (ip), vehicle: saline with Tween-80
[7] = endpoint: mean survival time, dose: 5.0 mg/kg/injection, schedule: Q01DX001 (ip), vehicle: saline
[8] = endpoint: mean survival time, dose: 10.0 mg/kg/injection, schedule: Q01DX001 (ip), vehicle: saline
[9] = endpoint: mean survival time, dose: 20.0 mg/kg/injection, schedule: Q01DX001 (ip), vehicle: saline
[10] = endpoint: mean survival time, dose: 100.0 mg/kg/injection, schedule: Q01DX001 (ip), vehicle: saline with Tween-80
[11] = endpoint: mean survival time, dose: 400.0 mg/kg/injection, schedule: Q01DX001 (ip), vehicle: saline with Tween-80
[12] = endpoint: mean survival time, dose: 200.0 mg/kg/injection, schedule: Q04DX003 (ip), vehicle: saline with Tween-80

Measured: T/C

O=C(O)CC(=O)O.[NH-]CC(O)CN(Cc1ccccc1)CC(O)CN.[Pt+2] (stereo unspecified)
inactive: endpoint: median survival time, dose: 2.5 mg/kg/injection, schedule: Q04DX003 (ip), vehicle: water 102 % of control | endpoint: median survival time, dose: 5.0 mg/kg/injection, schedule: Q04DX003 (ip), vehicle: water 101 % of control | endpoint: median survival time, dose: 10.0 mg/kg/injection, schedule: Q04DX003 (ip), vehicle: water 108 % of control | endpoint: median survival time, dose: 12.5 mg/kg/injection, schedule: Q04DX003 (ip), vehicle: water 104 % of control | endpoint: median survival time, dose: 20.0 mg/kg/injection, schedule: Q04DX003 (ip), vehicle: water 111 % of control | endpoint: median survival time, dose: 25.0 mg/kg/injection, schedule: Q04DX003 (ip), vehicle: water 102 % of control | endpoint: median survival time, dose: 50.0 mg/kg/injection, schedule: Q04DX003 (ip), vehicle: water 104 % of control | endpoint: median survival time, dose: 100.0 mg/kg/injection, schedule: Q04DX003 (ip), vehicle: water 108 % of control

COc1ccc(NC(=O)Oc2ccc(Cl)cc2Cl)c(Cl)c1
inactive: endpoint: mean survival time, dose: 25.0 mg/kg/injection, schedule: Q01DX009 (ip), vehicle: Klucel (hydroxypropylcellulose) (HPC) 95 % of control | endpoint: mean survival time, dose: 50.0 mg/kg/injection, schedule: Q01DX009 (ip), vehicle: Klucel (hydroxypropylcellulose) (HPC) 95 % of control and 107 % of control | endpoint: mean survival time, dose: 100.0 mg/kg/injection, schedule: Q01DX009 (ip), vehicle: Klucel (hydroxypropylcellulose) (HPC) 98 % of control and 104 % of control | endpoint: mean survival time, dose: 100.0 mg/kg/injection, schedule: Q04DX003 (ip), vehicle: Klucel (hydroxypropylcellulose) (HPC) 98 % of control | endpoint: mean survival time, dose: 200.0 mg/kg/injection, schedule: Q01DX009 (ip), vehicle: Klucel (hydroxypropylcellulose) (HPC) 120 % of control and 102 % of control | endpoint: mean survival time, dose: 200.0 mg/kg/injection, schedule: Q04DX003 (ip), vehicle: Klucel (hydroxypropylcellulose) (HPC) 104 % of control | endpoint: mean survival time, dose: 400.0 mg/kg/injection, schedule: Q04DX003 (ip), vehicle: Klucel (hydroxypropylcellulose) (HPC) 112 % of control

COc1ccccc1[As](=O)(O)CC(O)COc1ccc(Cl)cc1Cl (stereo unspecified)
inactive: endpoint: mean survival time, dose: 6.25 mg/kg/injection, schedule: Q04DX003 (ip), vehicle: saline 98 % of control | endpoint: mean survival time, dose: 12.5 mg/kg/injection, schedule: Q04DX003 (ip), vehicle: saline 96 % of control

CS(C)=C1C(=O)NC(=S)NC1=O
inactive: endpoint: median survival time, dose: 20.75 mg/kg/injection, schedule: Q01DX009 (ip), vehicle: saline with Tween-80 108 % of control | endpoint: median survival time, dose: 41.5 mg/kg/injection, schedule: Q01DX009 (ip), vehicle: saline with Tween-80 102 % of control | endpoint: median survival time, dose: 83.0 mg/kg/injection, schedule: Q01DX009 (ip), vehicle: saline with Tween-80 111 % of control | endpoint: median survival time, dose: 166.0 mg/kg/injection, schedule: Q01DX009 (ip), vehicle: saline with Tween-80 107 % of control

Cc1ccc(C(CS(=O)(=O)c2ccc(C)cc2)c2ccccc2)cc1 (stereo unspecified)
inactive: endpoint: mean survival time, dose: 100.0 mg/kg/injection, schedule: Q04DX003 (ip), vehicle: saline 93 % of control | endpoint: mean survival time, dose: 200.0 mg/kg/injection, schedule: Q04DX003 (ip), vehicle: saline 93 % of control | endpoint: mean survival time, dose: 400.0 mg/kg/injection, schedule: Q04DX003 (ip), vehicle: saline 98 % of control

O=[N+]([O-])c1ccc2nc(Cl)sc2c1
inactive: [1] 102 % of control | [2] 103 % of control | [3] 100 % of control | [4] 86 % of control

OC1C2CC3C(C2)C13 (stereo unspecified)
inactive: [3] 102 % of control and 106 % of control | [5] 96 % of control | [6] 98 % of control and 102 % of control

CCOC(=O)C1=C(C)O/C(=C/c2cccc(Cl)c2)C1=O
inactive: endpoint: median survival time, dose: 50.0 mg/kg/injection, schedule: Q01DX009 (ip), vehicle: saline with Tween-80 107 % of control | endpoint: median survival time, dose: 100.0 mg/kg/injection, schedule: Q01DX009 (ip), vehicle: saline with Tween-80 110 % of control | endpoint: median survival time, dose: 200.0 mg/kg/injection, schedule: Q01DX009 (ip), vehicle: saline with Tween-80 112 % of control

COc1ccc(Cc2nc(C)cc3cc(OC)c(OC)cc23)cc1OC
inactive: endpoint: mean survival time, dose: 25.0 mg/kg/injection, schedule: Q01DX009 (ip), vehicle: water 92 % of control

O=c1cc2cccccc-2cc1O
inactive: [7] 103 % of control | [8] 97 % of control | [9] 101 % of control | endpoint: mean survival time, dose: 20.0 mg/kg/injection, schedule: Q04DX003 (ip), vehicle: saline with Tween-80 97 % of control | endpoint: mean survival time, dose: 40.0 mg/kg/injection, schedule: Q01DX001 (ip), vehicle: saline 103 % of control | endpoint: mean survival time, dose: 40.0 mg/kg/injection, schedule: Q04DX003 (ip), vehicle: saline with Tween-80 97 % of control | endpoint: mean survival time, dose: 80.0 mg/kg/injection, schedule: Q01DX001 (ip), vehicle: saline 97 % of control

O=P(c1ccccc1)(c1ccccc1)P(=O)(c1ccccc1)c1ccccc1
inactive: [10] 90 % of control | endpoint: mean survival time, dose: 200.0 mg/kg/injection, schedule: Q01DX001 (ip), vehicle: saline with Tween-80 90 % of control | [11] 96 % of control

CN=C([Se])NC
inactive: endpoint: mean survival time, dose: 3.13 mg/kg/injection, schedule: Q01DX005 (ip), vehicle: saline with Tween-80 108 % of control | endpoint: mean survival time, dose: 6.25 mg/kg/injection, schedule: Q01DX005 (ip), vehicle: saline with Tween-80 103 % of control | endpoint: mean survival time, dose: 12.5 mg/kg/injection, schedule: Q01DX005 (ip), vehicle: saline with Tween-80 116 % of control | endpoint: mean survival time, dose: 12.5 mg/kg/injection, schedule: Q04DX002 (ip), vehicle: saline with Tween-80 102 % of control | endpoint: mean survival time, dose: 25.0 mg/kg/injection, schedule: Q04DX002 (ip), vehicle: saline with Tween-80 104 % of control

CCCCCCCCCCCCCCCCCC[N+]1(C)CCC[N+](C)(CCCCCCCCCCCCCCCCCC)CC1 (stereo unspecified)
inactive: endpoint: mean survival time, dose: 100.0 mg/kg/injection, schedule: Q04DX002 (ip), vehicle: saline with Tween-80 98 % of control and 100 % of control | [4] 86 % of control and 108 % of control | endpoint: mean survival time, dose: 200.0 mg/kg/injection, schedule: Q04DX002 (ip), vehicle: saline with Tween-80 92 % of control and 100 % of control | [12] 90 % of control and 104 % of control | endpoint: mean survival time, dose: 400.0 mg/kg/injection, schedule: Q04DX002 (ip), vehicle: saline with Tween-80 87 % of control and 92 % of control | endpoint: mean survival time, dose: 400.0 mg/kg/injection, schedule: Q04DX003 (ip), vehicle: saline with Tween-80 88 % of control

CC(=O)NNC(=O)c1ccccc1
inactive: endpoint: mean survival time, dose: 50.0 mg/kg/injection, schedule: Q01DX009 (ip), vehicle: other 95 % of control and 105 % of control | endpoint: mean survival time, dose: 100.0 mg/kg/injection, schedule: Q01DX009 (ip), vehicle: other 97 % of control and 108 % of control | endpoint: mean survival time, dose: 200.0 mg/kg/injection, schedule: Q01DX009 (ip), vehicle: other 93 % of control and 97 % of control | endpoint: mean survival time, dose: 300.0 mg/kg/injection, schedule: Q01DX009 (ip), vehicle: other 90 % of control

COc1cc(Br)c(CCNC(=O)Cc2cc(OC)c(OC)cc2Br)cc1OC
inactive: [4] 91 % of control | [12] 86 % of control

COC(=O)c1[nH]cnc1/N=N/N(C)C.[Cl][Cu][Cl]
inactive: endpoint: mean survival time, dose: 2.5 mg/kg/injection, schedule: Q01DX001 (ip), vehicle: saline 98 % of control | [7] 92 % of control | [8] 88 % of control and 96 % of control | [9] 111 % of control

Nc1nc(-c2cccc([N+](=O)[O-])c2)c(N=Nc2ccccc2Cl)s1
inactive: [10] 89 % of control | [11] 96 % of control

O=S1CCCCO1 (stereo unspecified)
inactive: endpoint: mean survival time, dose: 75.0 mg/kg/injection, schedule: Q04DX003 (ip), vehicle: saline 95 % of control | endpoint: mean survival time, dose: 150.0 mg/kg/injection, schedule: Q04DX003 (ip), vehicle: saline 101 % of control

CN1C(=O)C(=Cc2ccc(O)cc2)C(=O)N(C)C1=O
inactive: endpoint: mean survival time, dose: 12.5 mg/kg/injection, schedule: Q01DX009 (ip), vehicle: saline with Tween-80 96 % of control and 100 % of control | [1] 102 % of control and 107 % of control | [2] 100 % of control and 108 % of control | [3] 104 % of control and 111 % of control | [5] 102 % of control and 106 % of control | [6] 106 % of control and 111 % of control

— PubChem BioAssay AID256 (DTP/NCI, 2004)
